System: extensive plaque psoriasis on the trunk
Assay: one patient case: once-daily topical application on the whole trunk
Format: in vivo, human
Settings: same patient; for effect of earlier treatments on redness and psoriasis: regular treatment before the composition (UVA, then hydrocortisone, then Acitretine); for status upon cessation of earlier treatments: upon cessation of earlier treatment
Text: The composition has been evaluated in one patient case. A […], presenting extensive plaque psoriasis on the trunk for several years (illustration 1), was regularly treated with UVA, then hydrocortisone, then Acitretine.
They were provided with the composition according to the invention to apply once daily on the whole trunk. No concomitant treatment for psoriasis or else was used.
After 6 months, treatment with the composition was discontinued. Several months after discontinuation, the patient was questioned regarding the status of the disease.

Structure (SMILES) | effect of earlier treatments on redness and psoriasis | status upon cessation of earlier treatments
COc1cc(C)c(/C=C/C(C)=C/C=C/C(C)=C/C(=O)O)c(C)c1C [Acitretine] | reduced redness, but never the psoriasis itself | redness came back
C[C@]12CCC(=O)C=C1CC[C@@H]1[C@@H]2[C@@H](O)C[C@@]2(C)[C@H]1CC[C@]2(O)C(=O)CO [hydrocortisone] | reduced redness, but never the psoriasis itself | redness came back

Reference: patent US12648984B2, “Long term treatment of psoriasis” (priority 2023, dated 2026)
